≈ marks a conversion by molar mass, not a printed value.
Tests used:
[1] = Lipophilicity, log P of the compound; format: physicochemical; conditions: octanol/water
[2] = tested on: Mycobacterium tuberculosis; assay: microbe, parasite or virus in culture; conditions: H37Rv, 672 h
Description: Antimycobacterial activity against Mycobacterium tuberculosis H37Rv after 28 days by agar dilution method

| Structure (SMILES) | logP [1] | MIC [2] |
| --- | --- | --- |
| Brc1ccc2c(c1)[C@@H]1OCCC[C@@H]1[C@H](c1ccc3oc4ccccc4c3c1)N2 (relative stereo) | 4.76 | 12.5 µg/mL (≈ 28.8 µM) |
| Cn1c2ccccc2c2cc([C@H]3Nc4ccc(F)cc4[C@@H]4OCCC[C@H]34)ccc21 | 4.25 | 3.13 µg/mL (≈ 8.1 µM) |
| Cn1c2ccccc2c2cc([C@H]3Nc4ccccc4[C@@H]4OCCC[C@H]34)ccc21 (relative stereo) | 4.1 | 12.5 µg/mL (≈ 33.9 µM) |
| Cn1c2ccccc2c2cc([C@H]3Nc4ccc(Cl)cc4[C@@H]4OCCC[C@H]34)ccc21 (relative stereo) | 4.65 | 6.25 µg/mL (≈ 15.5 µM) |
| c1ccc2c(c1)N[C@H](c1ccc3oc4ccccc4c3c1)[C@H]1CCCO[C@@H]21 (relative stereo) | 3.92 | 25 µg/mL (≈ 70.3 µM) |
| Cc1ccc2c(c1)[C@@H]1OCCC[C@@H]1[C@H](c1ccc3oc4ccccc4c3c1)N2 | 4.42 | 12.5 µg/mL (≈ 33.8 µM) |
| Brc1ccc2c(c1)[C@@H]1OCCC[C@@H]1[C@@H](c1ccc3oc4ccccc4c3c1)N2 (relative stereo) | 4.76 | 6.25 µg/mL (≈ 14.4 µM) |
| Fc1ccc2c(c1)[C@@H]1OCCC[C@@H]1[C@@H](c1ccc3oc4ccccc4c3c1)N2 (relative stereo) | 4.09 | 3.13 µg/mL (≈ 8.38 µM) |
| Cn1c2ccccc2c2cc([C@@H]3Nc4ccc(Cl)cc4[C@@H]4OCCC[C@H]34)ccc21 (relative stereo) | 4.65 | 12.5 µg/mL (≈ 31 µM) |
| Cn1c2ccccc2c2cc([C@@H]3Nc4ccc(Br)cc4[C@@H]4OCCC[C@H]34)ccc21 (relative stereo) | 4.93 | 25 µg/mL (≈ 55.9 µM) |
| Cc1ccc2c(c1)[C@@H]1OCCC[C@@H]1[C@@H](c1ccc3oc4ccccc4c3c1)N2 (relative stereo) | 4.42 | 12.5 µg/mL (≈ 33.8 µM) |
| Cc1ccc2c(c1)[C@@H]1OCCC[C@@H]1[C@@H](c1ccc3c(c1)c1ccccc1n3C)N2 (relative stereo) | 4.58 | 25 µg/mL (≈ 65.4 µM) |
| Cn1c2ccccc2c2cc([C@@H]3Nc4ccc(F)cc4[C@@H]4OCCC[C@H]34)ccc21 (relative stereo) | 4.25 | 6.25 µg/mL (≈ 16.2 µM) |
| Cn1c2ccccc2c2cc([C@@H]3Nc4ccccc4[C@@H]4OCCC[C@H]34)ccc21 (relative stereo) | 4.1 | 25 µg/mL (≈ 67.8 µM) |
| Fc1ccc2c(c1)[C@@H]1OCCC[C@@H]1[C@H](c1ccc3oc4ccccc4c3c1)N2 (relative stereo) | 4.09 | 3.13 µg/mL (≈ 8.38 µM) |
| CO[C@H]1/C=C/O[C@@]2(C)Oc3c(C)c(O)c4c(O)c(c(/C=N/N5CCN(C)CC5)c(O)c4c3C2=O)NC(=O)/C(C)=C\C=C\[C@H](C)[C@H](O)[C@@H](C)[C@@H](O)[C@@H](C)[C@H](OC(C)=O)[C@@H]1C [RIFAMPIN] |  | 0.2 µg/mL (≈ 0.243 µM) |
| CC[C@@H](CO)NCCN[C@@H](CC)CO [ETHAMBUTOL] |  | 3.13 µg/mL (≈ 15.3 µM) |
| COc1ccc2c(c1)[C@@H]1OCCC[C@@H]1[C@@H](c1ccc3oc4ccccc4c3c1)N2 (relative stereo) | 3.81 | 12.5 µg/mL (≈ 32.4 µM) |
| COc1ccc2c(c1)[C@@H]1OCCC[C@@H]1[C@@H](c1ccc3c(c1)c1ccccc1n3C)N2 (relative stereo) | 3.97 | 25 µg/mL (≈ 62.7 µM) |
| Cc1ccc2c(c1)[C@@H]1OCCC[C@@H]1[C@H](c1ccc3c(c1)c1ccccc1n3C)N2 (relative stereo) | 4.58 | 25 µg/mL (≈ 65.4 µM) |
| Clc1ccc2c(c1)[C@@H]1OCCC[C@@H]1[C@H](c1ccc3oc4ccccc4c3c1)N2 (relative stereo) | 4.49 | 25 µg/mL (≈ 64.1 µM) |
| Clc1ccc2c(c1)[C@@H]1OCCC[C@@H]1[C@@H](c1ccc3oc4ccccc4c3c1)N2 (relative stereo) | 4.49 | 6.25 µg/mL (≈ 16 µM) |
| NNC(=O)c1ccncc1 [ISONIAZID] |  | 0.1 µg/mL (≈ 0.729 µM) |
| Cn1c2ccccc2c2cc([C@H]3Nc4ccc(Br)cc4[C@@H]4OCCC[C@H]34)ccc21 (relative stereo) | 4.93 | 6.25 µg/mL (≈ 14 µM) |
| COc1ccc2c(c1)[C@@H]1OCCC[C@@H]1[C@H](c1ccc3oc4ccccc4c3c1)N2 (relative stereo) | 3.81 | 12.5 µg/mL (≈ 32.4 µM) |
| c1ccc2c(c1)N[C@@H](c1ccc3oc4ccccc4c3c1)[C@H]1CCCO[C@@H]21 (relative stereo) | 3.92 | 25 µg/mL (≈ 70.3 µM) |
